Laboratory results as given in the supplement of paper PMC10307832.

Assays:
Assay in all cases: relative viability (nuclei count vs DMSO), 5 days (fraction); higher = more cells survive
[1] = compound: COc1cc2nc(N3CCCN(C)CC3)nc(NC3CCN(Cc4ccccc4)CC3)c2cc1OC + Cc1cc(Nc2cc(N3CCN(C)CC3)nc(Sc3ccc(NC(=O)C4CC4)cc3)n2)n[nH]1 [Tozasertib] (partner 0.1 µM)
Procedure, shortened: (§1)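 Nuclei were stained with Hoechst during a one-step fixation (final 0.05% Triton X-100, 1% formaldehyde, 1 ug/ml Hoechst) carried out 5 days after dosing, then counted on 4× images. The cells, lung cancer lines in 1536-well plates, had been dosed by pin tool the day after seeding with one drug alone or a fixed anchor-drug dose plus five library-drug doses (not always all listed) in √10 steps. Relative viability is the nuclei count in treated wells divided by that in vehicle wells, and each value is the median of duplicate plates.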

AZD6482 + OSI-027 = compound: Cc1cc([C@@H](C)Nc2ccccc2C(=O)O)c2nc(N3CCOCC3)cc(=O)n2c1 [AZD6482] + COc1cccc2cc(-c3nc([C@H]4CC[C@H](C(=O)O)CC4)n4ncnc(N)c34)[nH]c12 [OSI-027] (partner 0.5 µM)
Procedure, shortened: as §1

AZD6482 + Dasatinib = compound: Cc1cc([C@@H](C)Nc2ccccc2C(=O)O)c2nc(N3CCOCC3)cc(=O)n2c1 [AZD6482] + Cc1nc(Nc2ncc(C(=O)Nc3c(C)cccc3Cl)s2)cc(N2CCN(CCO)CC2)n1 [Dasatinib] (partner 0.075 µM)
Procedure, shortened: as §1

AZD6482 + Pemetrexed = compound: Cc1cc([C@@H](C)Nc2ccccc2C(=O)O)c2nc(N3CCOCC3)cc(=O)n2c1 [AZD6482] + Nc1nc2[nH]cc(CCc3ccc(C(=O)N[C@@H](CCC(=O)O)C(=O)O)cc3)c2c(=O)[nH]1 [Pemetrexed] (partner 0.2 µM)
Procedure, shortened: as §1

UMC-11
relative viability ([1]; first compound 0.2 µM): 0.202 | relative viability ([1]; first compound 0.6325 µM): 0.214 | relative viability ([1]; first compound 2 µM): 0.212 | relative viability ([1]; first compound 6.325 µM): 0.2 | relative viability (AZD6482 + OSI-027; first compound 0.08 µM): 0.448 | relative viability (AZD6482 + OSI-027; first compound 0.253 µM): 0.464 | relative viability (AZD6482 + OSI-027; first compound 0.8 µM): 0.497 | relative viability (AZD6482 + OSI-027; first compound 2.53 µM): 0.459 | relative viability (AZD6482 + OSI-027; first compound 8 µM): 0.47 | relative viability (AZD6482 + Dasatinib; first compound 0.08 µM): 0.457 | relative viability (AZD6482 + Dasatinib; first compound 0.253 µM): 0.48 | relative viability (AZD6482 + Dasatinib; first compound 0.8 µM): 0.472 | relative viability (AZD6482 + Dasatinib; first compound 2.53 µM): 0.416 | relative viability (AZD6482 + Dasatinib; first compound 8 µM): 0.559 | relative viability (AZD6482 + Pemetrexed; first compound 0.08 µM): 0.752 | relative viability (AZD6482 + Pemetrexed; first compound 0.253 µM): 0.822 | relative viability (AZD6482 + Pemetrexed; first compound 0.8 µM): 0.811 | relative viability (AZD6482 + Pemetrexed; first compound 2.53 µM): 0.633 | relative viability (AZD6482 + Pemetrexed; first compound 8 µM): 0.738
